Results: patent US20230339902A1, “TRICYCLIC LIGANDS FOR DEGRADATION OF IKZF2 OR IKZF4” (C4 Therapeutics, Inc., priority 2020, published 2023)
Read-outs that look alike come from different tables or passages of the source.

How the values were obtained:
GSPT1 = biological target: T1, GSPT1 (Homo sapiens, UniProt P15170+Q96SW2); test: GSPT1 degradation assay, HiBiT method (Nano-Glo HiBiT Lytic Assay); type: cell-based; details: 293T.114 (HiBiT-GSPT1) cells, 6 hours
T1 construct: endogenously expressing GSPT1 with HiBiT fusion tag via CRISPR; endogenous in cells; host or cells: 293T.114 (HiBiT-GSPT1), CRISPR knock-in, generated in house
Procedure: Example 62 GSPT1 Degradation Assay
DMEM no-phenol red medium and fetal bovine serum (FBS) were purchased from Gibco (Grand Island, NY, USA). Nano-Glo® HiBiT Lytic Assay System was purchased from Promega (Madison, WI, USA). 293T.114 (HiBiT-GSPT1) cell line was generated in house, endogenously expressing GSPT1 with HiBiT fusion tag via CRISPR. Cell culture flasks and 384-well microplates were acquired from VWR (Radnor, PA, USA).
GSPT1 Degradation Analysis
(§1) GSPT1 degradation was determined based on quantification of luminescent signal using Nano-Glo® HiBiT Lytic Assay kit. Test compounds were added to the 384-well plate from a top concentration of 10 µM with 11 points, half log titration in duplicates. 293T.114 cells were added into 384-well plates at a cell density of 6000 cells per well. The plates were kept at 37° C. with 5% CO2 for 6 hours. The cells treated in the absence of the test compound were the negative control and the cells without Nano-Glo® HiBiT Lytic reagent were the positive control. After 6-hour incubation, Nano-Glo® HiBiT Lytic Assay reagents were added to the designated wells. Luminescence was acquired on EnVision™ Multilabel Reader (PerkinElmer, Santa Clara, CA, USA).

IKZF2 = biological target: T2, IKZF2 (Homo sapiens, UniProt Q96SW2+Q9UKS7); test: IKZF2 degradation assay, HiBiT method (Nano-Glo HiBiT Lytic Assay); type: cell-based; details: JURKAT.21 (IKZF2-HiBiT) cells
T2 construct: endogenously expressing IKZF2 with HiBiT fusion tag via CRISPR; host or cells: JURKAT.21 (IKZF2-HiBiT), CRISPR knock-in
Description: Example 61 IKZF2 Degradation Assay
RPMI 1640 Medium without phenol red and fetal bovine serum (FBS) were purchased from Gibco (Grand Island, NY, USA). Nano-Glo® HiBiT Lytic Assay System was purchased from Promega (Madison, WI, USA). JURKAT.21 (IKZF2-HiBiT) cell line, endogenously expressing IKZF2 with HiBiT fusion tag via CRISPR, was purchasing from Synthego (Menlo Park, CA, USA). Cell culture flasks and 384-well microplates were acquired from VWR (Radnor, PA, USA).
IKZF2 Degradation Analysis
as §1, with “IKZF2” for “GSPT1”, “JURKAT.216” for “293T.114”, “5000” for “6000”, “6 or 24” for “6”, “6-hour or 24-hour” for “6-hour”, “cells.” for “designated wells.”

[1] = 6 hours, read-out: HiBiT-Degradation JURKAT.21 IKZF2 6 hours DC50
[2] = 6 hours, read-out: HiBiT-Degradation JURKAT.21 IKZF2 6 hours Emax
[3] = 24 hours, read-out: HiBiT-Degradation JURKAT.21 IKZF2 24 hours DC50
[4] = 24 hours, read-out: HiBiT-Degradation JURKAT.21 IKZF2 24 hours Emax

T1 sequence (P15170 whole entry, the tested form may be a part): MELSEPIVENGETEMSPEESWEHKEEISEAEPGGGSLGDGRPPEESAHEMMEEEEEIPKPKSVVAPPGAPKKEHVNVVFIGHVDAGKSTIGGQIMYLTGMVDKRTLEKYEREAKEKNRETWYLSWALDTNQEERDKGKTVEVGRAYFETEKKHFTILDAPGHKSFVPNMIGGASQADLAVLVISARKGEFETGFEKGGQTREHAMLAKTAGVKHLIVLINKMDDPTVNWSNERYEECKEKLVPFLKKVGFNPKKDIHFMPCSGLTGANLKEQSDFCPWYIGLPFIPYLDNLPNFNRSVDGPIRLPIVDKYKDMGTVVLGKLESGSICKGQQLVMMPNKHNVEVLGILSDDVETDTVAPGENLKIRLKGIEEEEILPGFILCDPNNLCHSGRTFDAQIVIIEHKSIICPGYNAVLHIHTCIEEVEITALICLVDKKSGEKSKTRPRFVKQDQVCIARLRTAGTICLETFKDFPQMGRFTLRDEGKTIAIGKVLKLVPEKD
T1 sequence (Q96SW2 whole entry, the tested form may be a part): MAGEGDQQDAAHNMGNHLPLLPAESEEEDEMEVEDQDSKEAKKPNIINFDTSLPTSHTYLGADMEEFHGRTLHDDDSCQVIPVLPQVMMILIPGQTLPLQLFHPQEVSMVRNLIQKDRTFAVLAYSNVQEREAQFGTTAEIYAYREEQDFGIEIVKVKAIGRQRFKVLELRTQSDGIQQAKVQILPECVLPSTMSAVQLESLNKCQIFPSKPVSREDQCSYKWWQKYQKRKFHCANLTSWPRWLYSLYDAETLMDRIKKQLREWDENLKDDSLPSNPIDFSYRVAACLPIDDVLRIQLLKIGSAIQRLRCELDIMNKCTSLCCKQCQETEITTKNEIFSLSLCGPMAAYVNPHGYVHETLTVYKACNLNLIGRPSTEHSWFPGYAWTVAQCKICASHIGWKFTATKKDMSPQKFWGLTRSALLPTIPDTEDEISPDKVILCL
T1 sequence (Q16531 whole entry partner, the tested form may be a part): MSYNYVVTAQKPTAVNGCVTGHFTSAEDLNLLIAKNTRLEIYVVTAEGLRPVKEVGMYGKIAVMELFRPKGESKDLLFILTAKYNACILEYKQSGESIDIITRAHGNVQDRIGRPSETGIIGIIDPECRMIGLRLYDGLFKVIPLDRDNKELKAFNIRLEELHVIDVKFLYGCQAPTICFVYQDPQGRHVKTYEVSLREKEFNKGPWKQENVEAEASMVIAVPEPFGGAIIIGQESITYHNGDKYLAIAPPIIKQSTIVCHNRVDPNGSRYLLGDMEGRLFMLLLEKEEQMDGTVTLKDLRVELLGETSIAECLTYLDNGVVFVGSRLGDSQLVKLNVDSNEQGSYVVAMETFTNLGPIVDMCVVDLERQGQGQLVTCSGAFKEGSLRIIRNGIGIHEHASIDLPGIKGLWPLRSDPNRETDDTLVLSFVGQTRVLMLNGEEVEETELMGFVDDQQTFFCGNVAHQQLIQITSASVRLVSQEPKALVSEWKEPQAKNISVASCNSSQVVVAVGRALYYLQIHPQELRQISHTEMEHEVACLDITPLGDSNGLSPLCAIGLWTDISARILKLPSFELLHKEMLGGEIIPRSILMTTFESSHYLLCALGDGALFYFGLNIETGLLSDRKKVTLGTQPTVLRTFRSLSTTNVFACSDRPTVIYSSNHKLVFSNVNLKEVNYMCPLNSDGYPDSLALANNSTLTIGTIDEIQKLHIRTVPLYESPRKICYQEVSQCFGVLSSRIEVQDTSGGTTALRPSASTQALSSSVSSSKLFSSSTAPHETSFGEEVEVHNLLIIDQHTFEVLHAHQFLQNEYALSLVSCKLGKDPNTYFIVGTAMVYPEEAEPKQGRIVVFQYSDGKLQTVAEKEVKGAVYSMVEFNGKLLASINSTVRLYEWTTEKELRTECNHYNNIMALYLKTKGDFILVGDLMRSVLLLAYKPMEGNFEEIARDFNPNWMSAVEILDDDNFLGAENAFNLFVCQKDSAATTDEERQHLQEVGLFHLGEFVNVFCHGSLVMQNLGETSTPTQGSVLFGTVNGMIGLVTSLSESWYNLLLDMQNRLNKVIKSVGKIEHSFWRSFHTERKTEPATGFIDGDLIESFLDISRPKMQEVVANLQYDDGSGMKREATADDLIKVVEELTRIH
T2 sequence (Q9UKS7 whole entry, the tested form may be a part): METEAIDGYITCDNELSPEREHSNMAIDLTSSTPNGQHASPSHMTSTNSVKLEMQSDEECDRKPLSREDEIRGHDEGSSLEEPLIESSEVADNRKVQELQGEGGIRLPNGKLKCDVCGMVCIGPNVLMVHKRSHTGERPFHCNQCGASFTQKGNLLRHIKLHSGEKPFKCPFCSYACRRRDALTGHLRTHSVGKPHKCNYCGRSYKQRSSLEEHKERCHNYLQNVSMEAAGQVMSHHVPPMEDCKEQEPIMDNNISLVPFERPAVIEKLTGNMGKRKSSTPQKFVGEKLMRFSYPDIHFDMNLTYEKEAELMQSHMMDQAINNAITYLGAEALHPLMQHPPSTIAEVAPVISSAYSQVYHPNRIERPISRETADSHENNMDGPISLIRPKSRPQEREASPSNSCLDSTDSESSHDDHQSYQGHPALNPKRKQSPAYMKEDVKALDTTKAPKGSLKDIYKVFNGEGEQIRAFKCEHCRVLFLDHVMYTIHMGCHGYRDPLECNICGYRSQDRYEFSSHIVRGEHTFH
T2 sequence (Q96SW2 whole entry, the tested form may be a part): as the sequence (Q96SW2 whole entry, the tested form may be a part) above
T2 sequence (Q16531 whole entry partner, the tested form may be a part): as the sequence (Q16531 whole entry partner, the tested form may be a part) above

| DC50 (GSPT1) [µM] | Emax (GSPT1) [%] | DC50 (IKZF2; [1]) [µM] | Emax (IKZF2; [2]) [%] | DC50 (IKZF2; [3]) [µM] | Emax (IKZF2; [4]) [%] | Compound |
| --- | --- | --- | --- | --- | --- | --- |
| > 10 | 60 to 95 | > 10 | 60 to 95 |  |  | CC(NC(=O)c1ccc2c3c(cccc13)N(C1CCC(=O)NC1=O)C2=O)c1ccccc1 (stereo not shown) [Compound 107, 1-(2,6-dioxo-3-piperidyl)-2-oxo-N-(1-phenylethyl)benzo[cd]indole-5-carboxamide] |
| > 10 | 60 to 95 |  |  |  |  | O=C1CCC(N2C(=O)c3ccc(C4(F)CCN(Cc5ccccc5)CC4)c4nccc2c34)C(=O)N1 (stereo not shown) [Compound 123, 3-[18-(1-benzyl-4-fluoro-4-piperidyl)-24-oxo-27,30-diazatricyclododeca-5(17),6(18),7(19),8(27),20-pentaen-30-yl]piperidine-2,6-dione] |
| > 10 | 60 to 95 | > 10 | 60 to 95 |  |  | O=C1CCC(N2C(=O)c3ccc(N4CCN(Cc5ccccc5)CC4)c4nccc2c34)C(=O)N1 (stereo not shown) [Compound 120, 3-[18-(4-benzylpiperazin-1-yl)-24-oxo-26,30-diazatricyclododeca-5,7(19),8(26),17(20),18(21)-pentaen-30-yl]piperidine-2,6-dione] |
| > 10 | 60 to 95 | > 10 | 60 to 95 | > 10 | 60 to 95 | CN1CC(c2ccc3c4c(cccc24)N(C2CCC(=O)NC2=O)C3=O)C1 (stereo not shown) [Compound 102, 3-[5-(1-methylazetidin-3-yl)-2-oxo-benzo[cd]indol-1-yl]piperidine-2,6-dione] |
| > 10 | 60 to 95 |  |  |  |  | CN(c1ccc2c3c(cccc13)N(C1CCC(=O)NC1=O)C2=O)C1CCN(Cc2ccccc2)C1 (stereo not shown) [Compound 116] |
| > 10 | 60 to 95 | > 10 | 60 to 95 |  |  | O=C1CCC(N2C(=O)c3ccc(CC4CN(Cc5ccccc5)C4)c4cccc2c34)C(=O)N1 (stereo not shown) [Compound 103, 3-[5-[(1-benzylazetidin-3-yl)methyl]-2-oxo-benzo[cd]indol-1-yl]piperidine-2,6-dione] |
| > 10 | 60 to 95 |  |  |  |  | CN1CCN(c2ccc3c4c(cccc24)N(C2CCC(=O)NC2=O)C3=O)CC1 (stereo not shown) [Compound 114, 3-[5-(4-methylpiperazin-1-yl)-2-oxo-benzo[cd]indol-1-yl]piperidine-2,6-dione] |
| > 10 | 60 to 95 |  |  |  |  | COc1ccccc1C(C)NC(=O)c1ccc2c3c(cccc13)N(C1CCC(=O)NC1=O)C2=O (stereo not shown) [Compound 109, 1-(2,6-dioxopiperidin-3-yl)-N-(1-(2-methoxyphenyl)ethyl)-2-oxo-1,2-dihydrobenzo[cd]indole-5-carboxamide] |
|  |  | > 10 | 60 to 95 |  |  | O=C1CCC(N2C(=O)c3ccc(C(=O)NC(c4ccccc4)C(F)(F)F)c4cccc2c34)C(=O)N1 (stereo not shown) [Compound 110, 1-(2,6-dioxopiperidin-3-yl)-2-oxo-N-(2,2,2-trifluoro-1-phenylethyl)-1,2-dihydrobenzo[cd]indole-5-carboxamide] |
|  |  | > 10 | 60 to 95 |  |  | O=C1CCC(N2C(=O)c3ccc(C4CCN(Cc5ccccc5)CC4)c4nccc2c34)C(=O)N1 (stereo not shown) [Compound 126, 3-[17-(1-benzyl-4-piperidyl)-25-oxo-27,30-diazatricyclododeca-5(17),6(18),7(19),8(27),20-pentaen-30-yl]piperidine-2,6-dione] |
| > 10 | 60 to 95 | > 10 | > 95 |  |  | CN1CCN(c2ccc3c4c(ccnc24)N(C2CCC(=O)NC2=O)C3=O)CC1 (stereo not shown) [Compound 121] |
| > 10 | 60 to 95 | > 10 | 60 to 95 |  |  | CC(NC(=O)c1ccc2c3c(ccnc13)N(C1CCC(=O)NC1=O)C2=O)c1ccccc1 (stereo not shown) [Compound 122, 27-(2,6-dioxo-3-piperidyl)-20-oxo-N-(1-phenylethyl)-24,27-diazatricyclododeca-6,8(15),9(24),13(16),14(17)-pentaene-14-carboxamide] |
| > 10 | > 95 | > 10 | 60 to 95 |  |  | CN1CCC(c2ccc3c4c(cccc24)N(C2CCC(=O)NC2=O)C3=O)C1 (stereo not shown) [Compound 98, 3-[5-(1-methylpyrrolidin-3-yl)-2-oxo-benzo[cd]indol-1-yl]piperidine-2,6-dione] |
| > 10 | > 95 | > 10 | 60 to 95 |  |  | CN1CC(F)(c2ccc3c4c(cccc24)N(C2CCC(=O)NC2=O)C3=O)C1 (stereo not shown) [Compound 101] |
| > 10 | 60 to 95 | > 10 | 60 to 95 |  |  | CC(C)(C)OC(=O)N1CC(Cc2ccc3c4c(cccc24)N(C2CCC(=O)NC2=O)C3=O)C1 (stereo not shown) [Compound 104, Tert-butyl 3-[[1-(2,6-dioxo-3-piperidyl)-2-oxo-benzo[cd]indol-5-yl]methyl]azetidine-1-carboxylate] |
| > 10 | 60 to 95 | > 10 | 60 to 95 |  |  | CN1CCC(F)(c2ccc3c4c(cccc24)N(C2CCC(=O)NC2=O)C3=O)CC1 (stereo not shown) [Compound 97] |
| > 10 | > 95 | > 10 | 60 to 95 |  |  | O=C1CCC(N2C(=O)c3ccc(C4(F)CN(Cc5ccccc5)C4)c4cccc2c34)C(=O)N1 (stereo not shown) [Compound 100, 3-[5-(1-benzyl-3-fluoro-azetidin-3-yl)-2-oxo-benzo[cd]indol-1-yl]piperidine-2,6-dione] |
| > 10 | > 95 | > 10 | 60 to 95 |  |  | O=C1CCC(N2C(=O)c3ccc(C4CCN(Cc5ccccc5)C4)c4cccc2c34)C(=O)N1 (stereo not shown) [Compound 99] |
| > 10 | > 95 | > 10 | 60 to 95 |  |  | COc1ncc(CN2CCC(c3ccc4c5c(ccnc35)N(C3CCC(=O)NC3=O)C4=O)CC2)cn1 (stereo not shown) [Compound 127, 3-[14-[1-[(2-methoxypyrimidin-5-yl)methyl]-4-piperidyl]-24-oxo-26,31-diazatricyclododeca-1(14),2(15),3(16),4(26),18-pentaen-31-yl]piperidine-2,6-dione] |
| > 10 | > 95 | > 10 | 60 to 95 |  |  | CN1CC(Cc2ccc3c4c(cccc24)N(C2CCC(=O)NC2=O)C3=O)C1 (stereo not shown) [Compound 105, 3-[5-[(1-methylazetidin-3-yl)methyl]-2-oxo-benzo[cd]indol-1-yl]piperidine-2,6-dione] |
| > 10 | 60 to 95 | < 0.5 | 45 to 60 | < 0.5 | < 45 | Cc1cc(C)nc(-c2ccc3c4c(cccc24)N(C2CCC(=O)NC2=O)C3=O)n1 (stereo not shown) [Compound 106, 3-[5-(4,6-dimethylpyrimidin-2-yl)-2-oxo-benzo[cd]indol-1-yl]piperidine-2,6-dione] |
|  |  | > 10 | 60 to 95 |  |  | O=C1CCC(N2C(=O)c3ccc(OC4CCCC[C@@H]4N4CC(Oc5cccc(F)c5)C4)c4cccc2c34)C(=O)N1 (stereo in doubt) [Compound 117, 3-[5-[(1R)-2-[3-(3-fluorophenoxy)azetidin-1-yl]cyclohexoxy]-2-oxo-benzo[cd]indol-1-yl]piperidine-2,6-dione] |
|  |  | > 10 | 60 to 95 |  |  | O=C1CCC(N2C(=O)c3ccc(N4CCN(Cc5ccccc5)CC4)c4cccc2c34)C(=O)N1 (stereo not shown) [Compound 115] |
| > 10 | 60 to 95 | > 10 | 60 to 95 |  |  | CC(C)NC(=O)c1ccc2c3c(cccc13)N(C1CCC(=O)NC1=O)C2=O (stereo not shown) [Compound 112, 1-(2,6-dioxopiperidin-3-yl)-N-isopropyl-2-oxo-1,2-dihydrobenzo[cd]indole-5-carboxamide] |

| Compound | DC50 (GSPT1) [µM] | Emax (GSPT1) [%] | DC50 (IKZF2; [1]) [µM] | Emax (IKZF2; [2]) [%] | DC50 (IKZF2; [3]) [µM] | Emax (IKZF2; [4]) [%] |
| --- | --- | --- | --- | --- | --- | --- |
| O=C1CCC(N2C(=O)c3ccc(C4(F)CCN(Cc5ccccc5)CC4)c4cccc2c34)C(=O)N1 (stereo not shown) [Compound 96, 3-[5-(1-benzyl-4-fluoro-4-piperidyl)-2-oxo-benzo[cd]indol-1-yl]piperidine-2,6-dione] | > 10 | 60 to 95 | > 10 | 60 to 95 |  |  |
